Test results: patent US20180310564A1, “Mesoionic Compound” (Nippon Kayaku Kabushiki Kaisha, priority 2015, published 2018)
Structures can show the parent of a compound that is named as a salt.

Legend:
Format in all cases: in vivo
[1] = tested on: Cotton Aphid (Aphis gossypii); assay: Test (foliar spraying) for controlling cotton aphid; conditions: 120 h, 5 days after treatment; for mortality at 12.5 ppm / mortality at 50 ppm / mortality at 3.1 ppm: foliar spraying; for mortality at 200 ppm: foliar spraying on cucumber leaf
Experimental: A cucumber leaf cut to a diameter of 3.5 cm was placed on cotton wool moistened with water. Two adult cotton aphids were released there for offspring for 24 hours and the adult insects were then removed. […] After air-drying, the sample with cotton wool was placed in a plastic cup, which was covered with a lid and kept in a chamber at a constant temperature of 25° C. for rearing.

[2] = tested on: Brown Planthopper (Nilaparvata lugens); assay: Test (root dipping) for controlling brown planthopper; conditions: 200 ppm, root dipping of rice seedlings, larvae released after 2 days, 5 days after treatment
Experimental: (§1) Ten sampled rice seedlings held with urethane in a glass cylinder having an inner diameter of 4.5 cm and a length of 14 cm were set up in a plastic cup containing 40 mL of chemical solution diluted to a desired concentration. After 2 days, 10 larvae of brown planthoppers in the third instar larva were released in the glass cylinder. The glass cylinder was covered with a lid of medicine paper and kept in a chamber at a constant temperature of 25° C. for rearing.

[3] = tested on: Southern Yellow thrips (Thrips palmi); assay: Test (foliar spraying) for controlling southern yellow thrips; conditions: 3 days after treatment; for mortality at 200 ppm: 72 h, foliar spraying on cucumber leaf, first instar larvae; for Mortality of Thrips palmi (%): foliar spraying
Experimental: A cucumber leaf cut to a diameter of 1.5 cm was placed on cotton wool moistened with water. […] After air-drying, 5 larvae of southern yellow thrips in the first instar larva were released there. The sample with cotton wool was placed in a plastic cup, which was covered with a lid and kept in a chamber at a constant temperature of 25° C. for rearing.

[4] = tested on: Brown Planthopper (Nilaparvata lugens); assay: Test (foliar dipping) for controlling brown planthopper; conditions: 120 h, rice seedlings dipped, 5 days after treatment; for mortality at 200 ppm: third instar larvae
Experimental: as §1, with “[…] After air-drying, the” for “Ten sampled”, “water. Larvae” for “chemical solution diluted to a desired concentration. After 2 days, 10 larvae”, “there.” for “in the glass cylinder.”, “The” for “The glass”

[5] = tested on: Brown Planthopper (Nilaparvata lugens); assay: Residual effect test (field experiment) for brown planthopper
Experimental: The roots of five sampled rice seedlings were washed with water. Subsequently, 25 mg of the wettable powder prepared in accordance with Formulation Example 2 described above was wrapped in the roots. Each strain was made from the five seedlings. In outdoor artificial paddy fields made from wooden frames having a size of 60 cm by 90 cm, 10 strains were planted, respectively. The artificial paddy field was shielded by an insect screen with a mesh size of 1 mm, so that invasion of harmful insects from the outside was prevented. Into the test system, 40 to 100 adult brown planthoppers were released at fixed intervals so as to cause damage to the rice. On 16 to 51 days after the treatment, the numbers of surviving insects and dead insects were measured to calculate the density index. The density index was obtained from the following expression.

Row | Compound | mortality at 12.5 ppm [1] | mortality at 50 ppm [1] | mortality at 200 ppm [1] | mortality at 200 ppm [3] | mortality at 200 ppm [4] | further results
1 | Cc1cccn2c(=O)c(-c3cc(Cl)cc(Cl)c3)c([O-])[n+](Cc3cnc(Cl)s3)c12 [Dicloromezotiaz] | 0% | 90% | 100% | 0% | 0% | mortality at 200 ppm [2]: 0%
2 | Cc1cccc(-c2c([O-])[n+](CCCCC#N)c3ccccn3c2=O)c1 [Comparative compound 3] | 0% | 40% | 100% | – | – | –
3 | N#CCC[n+]1c([O-])c(-c2ccccc2)c(=O)n2ccccc21 [Compound 1, 1-(2-cyanoethyl)-2-hydroxy-4-oxo-3-phenyl-4H-pyrido[1,2-a]pyrimidinium inner salt] | – | – | ≥ 80% | ≥ 80% | ≥ 80% | mortality at 0.012 ppm ([4]; 0.012 ppm): 50%; mortality at 0.024 ppm ([4]; 0.024 ppm): 60%; mortality at 0.049 ppm ([4]; 0.049 ppm): 70%
4 | COc1cccc(-c2c([O-])[n+](CCC#N)c3ccccn3c2=O)c1 [Compound 18, 1-(2-cyanoethyl)-2-hydroxy-3-(3-methoxyphenyl)-4-oxo-4H-pyrido[1,2-a]pyrimidinium inner salt] | – | – | ≥ 80% | ≥ 80% | ≥ 80% | Mortality of Thrips palmi (%) ([3]; 3.1 ppm): 100%; Mortality of Thrips palmi (%) ([3]; 12.5 ppm): 100%; Mortality of Thrips palmi (%) ([3]; 50 ppm): 100%; mortality at 0.01 ppm [4]: 10%; mortality at 0.02 ppm [4]: 20%; mortality at 0.05 ppm [4]: 100%
5 | N#CCCC[n+]1c([O-])c(-c2cccc(C(F)(F)F)c2)c(=O)n2ccccc21 [Comparative compound 4] | 75% | – | – | – | – | mortality at 3.1 ppm [1]: 0%
6 | CC(CC#N)[n+]1c([O-])c(-c2cccc(C(F)(F)F)c2)c(=O)n2ccccc21 (stereo not shown) [Comparative compound 7] | – | – | 0% | – | – | –
7 | Cc1cccc(-c2c([O-])[n+](CCCCCCCC#N)c3ccccn3c2=O)c1 [Comparative compound 1] | – | – | 0% | – | – | –
8 | N#CC[n+]1c([O-])c(-c2cccc(C(F)(F)F)c2)c(=O)n2ccccc21 [Comparative compound 5] | 10% | – | – | – | – | mortality at 3.1 ppm [1]: 0%
9 | CC(C#N)C[n+]1c([O-])c(-c2cccc(C(F)(F)F)c2)c(=O)n2ccccc21 (stereo not shown) [Comparative compound 6] | 50% | 100% | – | – | – | –
10 | Cc1cccc(-c2c([O-])[n+](CCCCCC#N)c3ccccn3c2=O)c1 [Comparative compound 2] | – | 0% | 20% | – | – | –
11 | CCOc1cccc(-c2c([O-])[n+](CCC#N)c3ccccn3c2=O)c1 [Compound 21, 1-(2-cyanoethyl)-3-(3-ethoxyphenyl)-2-hydroxy-4-oxo-4H-pyrido[1,2-a]pyrimidinium inner salt] | – | – | ≥ 80% | ≥ 80% | ≥ 80% | mortality at 0.01 ppm [4]: 10%; mortality at 0.02 ppm [4]: 70%; mortality at 0.05 ppm [4]: 80%
12 | N#Cc1nn(-c2c(Cl)cc(C(F)(F)F)cc2Cl)c(N)c1[S+]([O-])C(F)(F)F (stereo not shown) [Fipronil, reference compound] | – | – | – | – | – | Density index of Nilaparvata lugens ([5]; After 16 days, 25 mg wettable powder (Formulation Example 2) at roots per strain, outdoor artificial paddy field): 0; Density index of Nilaparvata lugens ([5]; After 23 days, 25 mg wettable powder at roots per strain, artificial paddy field): 5.4; Density index of Nilaparvata lugens ([5]; After 30 days, 25 mg wettable powder at roots per strain, artificial paddy field): 56.2; Density index of Nilaparvata lugens ([5]; After 37 days, 25 mg wettable powder at roots per strain, artificial paddy field): 73.9; Density index of Nilaparvata lugens ([5]; After 44 days, 25 mg wettable powder at roots per strain, artificial paddy field): 105; Density index of Nilaparvata lugens ([5]; After 51 days, 25 mg wettable powder at roots per strain, artificial paddy field): 98.4
